# Source: ChEMBL document CHEMBL4665788, “Development of Nonpeptidic Inverse Agonists of the Ghrelin Receptor (GHSR) Based on the 1,2,4-Triazole Scaffold” (J Med Chem, 2020)
# Calls of active or inactive are those of the source. The rule behind the calls is not given here.
# Tests used:
# [1] = biological target: T1, Growth hormone secretagogue receptor type 1 (Homo sapiens, UniProt Q92847); settings: HEK293, filed as inverse agonist, dose 1.0 10^-5M, time 30.0 min
# [2] = biological target: T1, Growth hormone secretagogue receptor type 1; assay: Inverse agonist activity at SNAP-tagged human GHSR expressed in HEK293 cells assessed as inhibition of ghrelin-induced IP1 response measured after 30 mins by HTRF assay; type: functional, cell-based
# [3] = biological target: T1, Growth hormone secretagogue receptor type 1; assay: Displacement of red-ghrelin from SNAP-tagged human GHSR expressed in HEK293 cells incubated for 3 hrs at 4 degC or for 1 hr at room temperature by HTRF assay; type: cell-based
# [4] = biological target: T1, Growth hormone secretagogue receptor type 1; assay: Agonist activity at SNAP-tagged human GHSR expressed in HEK293 cells assessed as stimulation of ghrelin-induced increase in IP1 accumulation at 10^-5 M measured after 30 mins by IP1-d2 derivative based HTRF assay relative to control; type: functional, cell-based; settings: filed as agonist, dose 1.0 10^-5M
# [5] = biological target: T1, Growth hormone secretagogue receptor type 1; assay: Agonist activity at SNAP-tagged human GHSR expressed in HEK293 cells assessed as stimulation of ghrelin-induced increase in IP1 accumulation at 10^-5 M measured after 30 mins by IP1-d2 derivative based HTRF assay relative to ghrelin; type: functional, cell-based; settings: filed as agonist, dose 1.0 10^-5M
# [6] = biological target: T1, Growth hormone secretagogue receptor type 1; assay: Antagonist activity at SNAP-tagged human GHSR expressed in HEK293 cells assessed as inhibition of ghrelin-induced IP1 accumulation at 10^-5M measured after 30 mins by IP1-d2 derivative based HTRF assay relative to ghrelin; type: functional, cell-based; settings: filed as antagonist, dose 1.0 10^-5M
# [7] = biological target: T1, Growth hormone secretagogue receptor type 1; assay: Antagonist activity at SNAP-tagged human GHSR expressed in HEK293 cells assessed as inhibition of ghrelin-induced IP1 accumulation at 10^-5M measured after 30 mins by IP1-d2 derivative based HTRF assay relative to control; type: functional, cell-based; settings: filed as antagonist, dose 1.0 10^-5M
# [8] = Solubility of the compound in water; type: physicochemical
# [9] = Toxicity in wild type C57BL6/J mouse assessed as sickness-like behavior at 1 nmol, icv injection for 2 mins via cannula; settings: in vivo, icv_or_intrathecal
# [10] = Toxicity in wild type C57BL6/J mouse assessed as subdued behavior at 1 nmol, icv injection for 2 mins via cannula; settings: in vivo, icv_or_intrathecal
# [11] = Toxicity in wild type C57BL6/J mouse assessed as effect on early dark cycle food intake at 1 nmol, icv injection for 2 mins via cannula measured after 5 hrs (reference value: 2591 +/- 197 mg); settings: in vivo, icv_or_intrathecal
# [12] = Toxicity in wild type C57BL6/J mouse assessed as altered breathing rate at 1 nmol, icv injection for 2 mins via cannula; settings: in vivo, icv_or_intrathecal
# [13] = Anti-orexigenic activity in wild type C57BL6/J mouse assessed as reduction in ghrelin-induced food intake at 1 nmol, icv administered via cannula for 2 mins pretreated for 15 mins followed by ghrelin stimulation and measured after 2 hrs relative to control; type: functional; set-up: scale not given: the % may be the effect or the level left; settings: time 135 min, 2.25 h
# [14] = Toxicity in wild type C57BL6/J mouse assessed as appearance of spiky coat at 1 nmol, icv injection for 2 mins via cannula; settings: in vivo, icv_or_intrathecal
# [15] = Toxicity in wild type C57BL6/J mouse assessed as effect on body weight at 1 nmol, icv injection for 2 mins via cannula; settings: in vivo, icv_or_intrathecal
# [16] = system: Mus musculus; assay: Suppression of compensatory hyperphagia in wild type C57BL6/J mouse assessed as reduction in cumulative food intake at 1 nmol, icv administered at 8 hrs interval for 48 hrs followed by refeeding at 2 hrs post last dose and measured for 7 days post refeeding; type: functional; set-up: scale not given: the % may be the effect or the level left; settings: time 9 day
# [17] = Toxicity in wild type C57BL6/J mouse assessed as reduced activity at 1 nmol, icv injection for 2 mins via cannula; settings: in vivo, icv_or_intrathecal
# [18] = Toxicity in wild type C57BL6/J mouse assessed as effect on labored movement at 1 nmol, icv injection for 2 mins via cannula; settings: in vivo, icv_or_intrathecal
# [19] = biological target: Growth hormone secretagogue receptor type 1 (Rattus norvegicus) (UniProt O08725); assay: Inverse agonist activity at GHSR in Wistar rat pancreatic islets assessed as suppression of ghrelin-induced inhibition of glucose-stimulated insulin secretion at 1 uM after 1 hr in presence of glucose; type: tissue-based; settings: Pancreas, filed as inverse agonist
# Chain of Growth hormone secretagogue receptor type 1 (Rattus norvegicus) (O08725 whole entry): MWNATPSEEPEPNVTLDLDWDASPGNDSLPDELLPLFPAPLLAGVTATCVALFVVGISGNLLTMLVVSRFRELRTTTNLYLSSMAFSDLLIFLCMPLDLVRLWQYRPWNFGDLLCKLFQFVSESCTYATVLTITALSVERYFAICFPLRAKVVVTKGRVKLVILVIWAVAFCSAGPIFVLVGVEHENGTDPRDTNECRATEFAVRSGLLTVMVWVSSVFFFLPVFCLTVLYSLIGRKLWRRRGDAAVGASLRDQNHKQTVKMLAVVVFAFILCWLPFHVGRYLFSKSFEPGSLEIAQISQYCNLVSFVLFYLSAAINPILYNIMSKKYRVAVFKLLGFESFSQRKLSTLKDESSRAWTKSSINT
# [20] = Toxicity in wild type C57BL6/J mouse assessed as hunched posture at 1 nmol, icv injection for 2 mins via cannula; settings: in vivo, icv_or_intrathecal
# T1 sequence (Q92847 whole entry): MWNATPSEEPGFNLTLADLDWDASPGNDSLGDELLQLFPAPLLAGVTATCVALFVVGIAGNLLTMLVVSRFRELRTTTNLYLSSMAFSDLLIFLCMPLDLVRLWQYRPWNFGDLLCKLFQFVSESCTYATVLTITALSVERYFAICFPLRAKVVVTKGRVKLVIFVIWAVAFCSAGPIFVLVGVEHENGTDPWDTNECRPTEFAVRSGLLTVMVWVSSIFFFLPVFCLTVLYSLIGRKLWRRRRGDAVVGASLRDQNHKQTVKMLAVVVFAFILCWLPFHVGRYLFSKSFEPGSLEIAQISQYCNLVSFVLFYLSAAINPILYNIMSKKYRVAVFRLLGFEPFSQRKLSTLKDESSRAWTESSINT
compound,measurement,setting,value
COc1ccc(Cn2c(CCc3ccccc3)nnc2[C@@H](Cc2c[nH]c3ccccc23)NC(=O)CNC(=O)/C(C#N)=C/c2c[nH]c3ccccc23)cc1,Emax,[1],79%
same,EC50,[2],28 nM
same,Ki,[3],6.3 nM
COc1ccc(Cn2c(CCc3ccccc3)nnc2[C@@H](Cc2c[nH]c3ccccc23)NC(=O)CNC(=O)/C(C#N)=C/c2ccc(C)cc2)cc1,Emax,[1],82%
same,EC50,[2],21.5 nM
same,Ki,[3],1 nM
COc1ccc(/C=C(\C#N)C(=O)OCC(=O)N[C@H](Cc2c[nH]c3ccccc23)c2nnc(CCc3ccccc3)n2Cc2ccc(OC)cc2)cc1,Ki,[3],13 nM
COc1ccc(Cn2c(CCc3ccccc3)nnc2[C@@H](Cc2c[nH]c3ccccc23)NC(=O)CN(C)C)cc1,%max,[4],96%
same,%max,[5],76%
COc1ccc(Cn2c(CCc3ccccc3)nnc2[C@@H](Cc2c[nH]c3ccccc23)NC(=O)CNC(=O)/C=C/c2ccc(F)cc2)cc1,%max,[6],71%
same,%max,[7],74%
COc1ccc(/C=C(\C#N)C(=O)NCC(=O)N[C@H](Cc2c[nH]c3ccccc23)c2nnc(CCc3ccccc3)n2Cc2ccc(OC)cc2)cc1,Emax,[1],86%
same,EC50,[2],50 nM
same,Ki,[3],0.5 nM
COc1ccc(Cn2c(CCN3CCOCC3)nnc2[C@@H](Cc2c[nH]c3ccccc23)NC(=O)CNC(=O)/C(C#N)=C/c2ccc(N(C)C)cc2)cc1,Emax,[1],64%
same,EC50,[2],6 nM
same,Ki,[3],6.3 nM
COc1ccc(/C=C(\C#N)C(=O)NCC(=O)N[C@H](Cc2c[nH]c3ccccc23)c2nnc(CCc3c[nH]c4ccccc34)n2Cc2ccc(OC)cc2)cc1,solubility,"[8]; water, read-out: solubility",3.8 µg/mL
COc1ccc(Cn2c(CCN3CCOCC3)nnc2[C@@H](Cc2c[nH]c3ccccc23)NC(=O)CNC(=O)/C(C#N)=C/c2ccccc2)cc1,Emax,[1],49%
CNCC(=O)N[C@H](Cc1c[nH]c2ccccc12)c1nnc(CCc2ccccc2)n1Cc1ccc(OC)cc1,%max,[4],100%
same,%max,[5],76%
"COc1ccc(CC(N)C(=O)NCC(=O)N[C@H](Cc2c[nH]c3ccccc23)c2nnc(CCc3ccccc3)n2Cc2ccc(OC)cc2)cc1 (single isomer, unassigned)",Emax,[1],43%
same,EC50,[2],62 nM
same,Ki,[3],17 nM
COc1ccc(Cn2c(CCc3ccccc3)nnc2[C@@H](Cc2c[nH]c3ccccc23)NC(=O)CNC(=O)/C(C#N)=C/c2ccc(F)cc2)cc1,Emax,[1],76%
same,EC50,[2],14.2 nM
same,Ki,[3],0.6 nM
COc1ccc(Cn2c(CCc3ccccc3)nnc2[C@@H](Cc2c[nH]c3ccccc23)NC(=O)CNC(=O)/C(C#N)=C/c2ccc(N(C)C)cc2)cc1,Emax,[1],78%
same,EC50,[2],89 nM
same,Ki,[3],2.4 nM
COc1ccc(Cn2c(CCc3ccccc3)nnc2[C@@H](Cc2c[nH]c3ccccc23)NC(=O)CNC(=O)C(C)(C)C#N)cc1,%max,[6],70%
same,%max,[7],70%
COc1ccc(Cn2c(CCc3c[nH]c4ccccc34)nnc2[C@@H](Cc2c[nH]c3ccccc23)NC(=O)CNC(=O)/C(C#N)=C/c2ccc(O)cc2)cc1,Ki,[3],30 nM
COc1ccc(/C=C(\C#N)C(=O)N[C@@H](C)C(=O)N[C@H](Cc2c[nH]c3ccccc23)c2nnc(CCc3ccccc3)n2Cc2ccc(OC)cc2)cc1,Emax,[1],78%
same,EC50,[2],1.4 nM
same,Ki,[3],3 nM
COc1ccc(Cn2c(CCc3ccccc3)nnc2[C@@H](Cc2c[nH]c3ccccc23)NC(=O)CNC(=O)C#Cc2ccccc2)cc1,%max,[4],95%
same,%max,[5],69%
CCN(CC)CCc1nnc([C@@H](Cc2c[nH]c3ccccc23)NC(=O)CNC(=O)/C(C#N)=C/c2ccc(OC)cc2)n1Cc1ccc(OC)cc1,Emax,[1],69%
same,EC50,[2],35 nM
same,Ki,[3],10 nM
COc1ccc(Cn2c(CCc3ccccc3)nnc2[C@@H](Cc2c[nH]c3ccccc23)NC(=O)CNC(=O)C(C#N)Cc2ccccc2)cc1 (stereo not given in full),%max,[6],70%
same,%max,[7],72%
COc1ccc(Cn2c(CCc3ccccc3)nnc2[C@@H](Cc2c[nH]c3ccccc23)NC(=O)CN)cc1,%max,[6],65%
same,%max,[7],65%
COc1ccc(Cn2c(CCc3ccccc3)nnc2[C@@H](Cc2c[nH]c3ccccc23)NC(=O)CNC(=O)/C(C#N)=C/c2ccc(O)cc2)cc1,Activity,[9],Non-Toxic
same,Activity,[10],Non-Toxic
same,solubility,[8]; buffer,Soluble
same,Activity,[11],2179 mg
same,Activity,[12],Non-Toxic
same,Activity,[13],30.3%
same,Activity,[14],Non-Toxic
same,Activity,[15],Non-Toxic
same,Emax,[1],83%
same,Activity,[16],12.4%
same,EC50,[2],27 nM
same,Ki,[3],3 nM
same,Activity,[17],Non-Toxic
same,Activity,[18],Non-Toxic
same,Activity,[19],Active
same,Activity,[20],Non-Toxic
CC(C)C[C@H](NC(=O)[C@H](CC(C)C)NC(=O)[C@@H](Cc1c[nH]c2ccccc12)NC(=O)[C@H](Cc1ccccc1)NC(=O)[C@@H](Cc1cccc2ccccc12)NC(=O)[C@@H](N)CCCCN)C(N)=O,Activity,[9],Non-Toxic
same,Activity,[10],Non-Toxic
same,Activity,[11],2623 mg
same,Activity,[12],Non-Toxic
same,Activity,[13],67.6%
same,Activity,[14],Non-Toxic
same,Activity,[15],Non-Toxic
same,Activity,[16],20.1%
same,Activity,[17],Non-Toxic
same,Activity,[18],Non-Toxic
same,Activity,[20],Non-Toxic
COc1ccc(/C=C(\C#N)C(=O)NCCC(=O)N[C@H](Cc2c[nH]c3ccccc23)c2nnc(CCc3ccccc3)n2Cc2ccc(OC)cc2)cc1,Emax,[1],75%
same,EC50,[2],3.6 nM
same,Ki,[3],14 nM
